Data: patent US5703239A, “Indanylpiperidines as melatonergic agents” (Bristol-Myers Squibb Company, priority 1996, dated 1997)

Target: T1, human ML1B receptor (Homo sapiens, UniProt P49286)
T1 construct: expressed in transfected cells; host or cells: NIH 3T3 cells (stably transfected; obtained from S. M. Reppert)
T1 sequence (P49286 1-362): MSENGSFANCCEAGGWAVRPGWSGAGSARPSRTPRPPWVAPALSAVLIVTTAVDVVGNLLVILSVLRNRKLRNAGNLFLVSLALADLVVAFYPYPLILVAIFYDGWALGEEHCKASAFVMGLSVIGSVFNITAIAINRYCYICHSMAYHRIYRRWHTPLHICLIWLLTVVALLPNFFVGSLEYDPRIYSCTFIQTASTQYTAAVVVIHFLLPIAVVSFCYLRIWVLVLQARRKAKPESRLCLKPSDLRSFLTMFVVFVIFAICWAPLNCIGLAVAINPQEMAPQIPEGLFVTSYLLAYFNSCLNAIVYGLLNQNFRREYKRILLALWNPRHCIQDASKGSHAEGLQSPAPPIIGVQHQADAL
Experiment: Binding to human melatonergic receptors (2-[125I]-iodomelatonin, NIH 3T3 cell membranes, human ML1B receptor)
Details: IC50 class; 200 pM 2-[125I]-iodomelatonin, 37° C., 1 hour, membranes of NIH 3T3 cells transfected with human ML1B receptor; read-out: Melatonin Binding
Procedure: Measurement of Binding to Human Melatonergic Receptors The melatonergic binding affinities of various compounds of Formula I were determined by the method of Reppert, S. M., Weaver, D. R., and Ebisawa, R. (Neuron, Volume 13, 1177-1185, 1994). The assays were incubated at 37° C. for 1 hour, and the reaction was terminated by filtration. The filters were washed with wash buffer. […] The reagents, membrane and other techniques used in the melatonergic binding assays are more fully described below: […] Reagents: (a) 50 mM Tris buffer containing 12.5 mM MgCl2, and 2 mM EDTA, pH 7.4 at 37° C. (b) Wash buffer: 20 mM Tris base containing 2 mM MgCl2. pH 7.4 at room temperature. (c) Melatonin (10^-5 M final concentration). (d) 2-[^125 I]-Iodomelatonin, 200 pM final concentration Source: NEN 2. Membrane preparation: NIH 3T3 cells stably transfected with the human ML1B receptor were obtained from S. M. Reppert and maintained. Cells were pelleted when confluent. The supernatant was discarded and the pellets frozen. For preparing membrane homogenates, the pellets are thawed on ice and resuspended in TME buffer, Tris base, MgCl2, EDTA (pH 7.4 at 37° C.), supplemented with aprotinin, leupeptin, and […]. The cells were then homogenized and centrifuged. The resulting pellet was resuspended with a Dounce homogenizer in TME and frozen. At assay, a small aliquot was thawed on ice and resuspended in TME buffer.

SMILES	IC50 [nM]
COCC(=O)N1CCC(C2CCc3ccc(OC)cc32)CC1 (single isomer, unassigned; (-)) [(-)-4-(6-Methoxy-indan-1-yl)-1-(2-methoxyacetyl)piperidine]	< 10
O=C(C1CC1)N1CCC(C2CCc3ccc(OC(F)(F)F)cc32)CC1 (stereo not drawn) [1-(Cyclopropylcarbonyl)-4-[6-(trifluoromethoxy)-indan-1-yl]piperidine]	10 to 100
CCC(=O)N1CCC(C2CCc3cc(F)c(OC)cc32)CC1 (stereo not drawn) [4-(5-Fluoro-6-methoxy-indan-1-yl)-1-propanoylpiperidine]	< 10
COc1ccc2c(c1)C(C1CCN(C(=O)c3sccc3Cl)CC1)CC2 (stereo not drawn) [1-[(3-Chloro-thien-2-yl)carbonyl]-4-(6-methoxy-indan-1-yl)-piperidine]	< 10
COc1ccc2c(c1)C(C1CCN(C(=O)C(F)(F)F)CC1)CC2 (single isomer, unassigned; (-)) [(-)-4-(6-methoxy-indan-1-yl)-1-(trifluoroacetyl)piperidine]	< 10
COCC(=O)N1CCC(C2CCc3ccc(OC)cc32)CC1 (single isomer, unassigned; (+)) [(+)-1-(2-Methoxyacetyl)-4-(6-methoxy-indan-1-yl)piperidine]	100 to 250
COc1cc2c(cc1F)CCC2C1CCN(C(=O)C(C)C)CC1 (stereo not drawn) [4-(5-Fluoro-6-methoxy-indan-1-yl)1-(2-methylpropanoyl)piperidine]	< 10
CNC(=O)N1CCC(C2CCc3cc(F)c(OC)cc32)CC1 (stereo not drawn) [N-Methyl-4-(5-fluoro-6-methoxy-indan-1-yl)piperidine-1-carboxamide]	< 10
COc1ccc2c(c1)C(C1CCN(C=O)CC1)CC2 (single isomer, unassigned; (-)) [(-)-1-Formyl-4-(6-methoxy-indan-1-yl)piperidine]	< 10
CNC(=O)N1CCC(C2CCc3ccccc32)CC1 (stereo not drawn) [N-Methyl-4-(indan-1-yl)-piperidine-1-carboxamide]	< 10
COc1cc2c(cc1F)CCC2C1CCN(C(=O)C2CC2)CC1 (stereo not drawn) [1-(Cyclopropylcarbonyl)-4-(5-fluoro-6-methoxy-indan-1-yl)piperidine]	< 10
COCC(=O)N1CCC(C2CCc3ccc(OC)cc32)CC1 (stereo not drawn) [4-(6-Methoxy-indan-1-yl)-1-(2-methoxy-acetyl)piperidine]	< 10
COc1ccc2c(c1)C(C1CCN(C(=O)c3ccc[nH]3)CC1)CC2 (stereo not drawn) [4-(6-Methoxy-indan-1-yl)-1-[(1H-pyrrol-2-yl)carbonyl]piperidine]	< 10
COc1ccc2c(c1)C(C1CCN(C(=O)c3cccn3C)CC1)CC2 (stereo not drawn) [4-(6-Methoxy-indan-1-yl)-1-[(1-methyl-pyrrol-2-yl)carbonyl]piperidine]	< 10
COc1ccc2c(c1)C(C1CCN(C(=O)c3cccs3)CC1)CC2 (stereo not drawn) [4-(6-Methoxy-indan-1-yl)-1-[(2-thienyl)carbonyl]piperidine]	< 10
CC(=O)NCCc1c(Cc2ccccc2)[nH]c2ccccc12 [Luzindole]	100 to 250
COc1cc2c(cc1F)CCC2C1CCN(C(C)=O)CC1 (stereo not drawn) [1-Acetyl-4-(5-fluoro-6-methoxy-indan-1-yl)piperidine]	< 10
COc1cccc(CCCOc2ccc3c(c2)C(C2CCN(C(=O)C4CC4)CC2)CC3)c1 (stereo not drawn) [1-(Cyclopropylcarbonyl)-4-[6-[3-(3-methoxyphenyl)propyloxy]-indan-1-yl]piperidine]	10 to 100
COc1ccc2c(c1)C(C1CCN(C(=O)C3=CCCC3)CC1)CC2 (stereo not drawn) [1-[(Cyclopent-1-en-1-yl)carbonyl]-4-(6-methoxy-indan-1-yl)piperidine]	< 10
CNC(=S)N1CCC(C2CCc3ccc(OC)cc32)CC1 (stereo not drawn) [N-Methyl-4-(6-methoxy-indan-1-yl)-piperidine-1-thiocarboxamide]	< 10
COc1ccc2c(c1)C(C1CCN(C(=O)C(F)(F)F)CC1)CC2 (single isomer, unassigned; (+)) [(+)-4-(6-Methoxy-indan-1-yl)-1-(trifluoroacetyl)piperidine]	10 to 100

Further lines, results first:

IC50 [nM]	SMILES
10 to 100	CNC(=O)N1CCC(C2CCc3ccc(OC)cc32)CC1 (single isomer, unassigned; (+)) [(+)-N-Methyl-4-(6-methoxy-indan-1-yl)piperidine-1-carboxamide]
10 to 100	CNC(=O)N1CCC(C2CCc3ccc(F)cc32)CC1 (stereo not drawn) [N-Methyl-4-(6-fluoro-indan-1-yl)piperidine-1-carboxamide]
10 to 100	CCNC(=O)N1CCC(C2CCc3ccccc32)CC1 (stereo not drawn) [N-Ethyl-4-(indan-1-yl)-piperidine-1-carboxamide]
< 10	CNC(=O)N1CCC(C2CCc3ccc(OC)cc32)CC1 (stereo not drawn) [N-Methyl-4-(6-methoxy-indan-1-yl)piperidine-1-carboxamide]
10 to 100	CCNC(=O)N1CCC(C2CCc3ccc(OC)cc32)CC1 (single isomer, unassigned; (+)) [(+)N-Ethyl-4-(6-methoxy-indan-1-yl)piperidine-1-carboxamide]
10 to 100	CCNC(=O)N1CCC(C2CCc3cc(F)c(OC)cc32)CC1 (stereo not drawn) [N-Ethyl-4-(5-fluoro-6-methoxy-indan-1-yl)piperidine-1-carboxamide]
< 10	CCNC(=O)N1CCC(C2CCc3ccc(OC)cc32)CC1 (single isomer, unassigned; (-)) [(-)-N-Ethyl-4-(6-methoxy-indan-1-yl)piperidine-1-carboxamide]
10 to 100	CCNC(=O)N1CCC(C2CCCc3ccc(OC)cc32)CC1 (stereo not drawn) [N-Ethyl-4-(7-methoxy-tetralin-1-yl)piperidine-1-carboxamide]
< 10	CCCC(=O)N1CCC(C2CCc3ccc(OC)cc32)CC1 (single isomer, unassigned; (-)) [(-)-1-Butanoyl-4-(6-methoxy-indan-1-yl)piperidine]
< 10	CCNC(=O)N1CCC(C2CCc3ccc(CC)cc32)CC1 (stereo not drawn) [N-Ethyl-4-(6-ethyl-indan-1-yl)piperidine-1-carboxamide]

Tested on: human melatonin receptors
Experiment: not given
Details: result in words, luzindole, background section; cited from earlier work

SMILES	binds to human melatonin receptors
CC(=O)NCCc1c(Cc2ccccc2)[nH]c2ccccc12 [Luzindole]	binds to human melatonin receptors

Tested on: not given
Experiment: not given
Details: literature: Dubocovich et al, European Journal of Pharmacology, 182, (1990), pages 313-325; cited from earlier work

SMILES	antidepressant-like effects
CC(=O)NCCc1c(Cc2ccccc2)[nH]c2ccccc12 [Luzindole]	exhibits antidepressant-like effects
